In patent US12691119B2, “Methods for treating covid-19 with sepiapterin” (PTC Therapeutics MP, Inc., priority 2021, dated 2026):

Experiments:
[1] = system: cytokine expression in the lungs; experiment: Intranasal LPS model of ARDS, cytokine expression in BAL fluid by ELISA; format: in vivo; settings: mice, 10 mg/kg per day oral gavage for 3 days, then 40 ug LPS intranasally; BAL 16-18 hours later; FIG. 1
Procedure: FIG. 1 is a graph showing cytokine expression in the lungs of mice treated with intranasal lipopolysaccharide (LPS) with or without 10 mg/kg sepiapterin (SP) treatment.
This is in line with the therapeutic effect of SP in a Dextran Sulfate Sodium//Azoxymethane model of colitis/colon cancer.
Mice were treated with either 10 mg/kg sepiapterin (SP) per day delivered via oral gavage or nothing for 3 days. Mice were then treated with 40 ug lipopolysaccharide (LPS) inhaled intranasally. 16-18 hours later, bronchoalveolar lavage (BAL) fluid was collected and assess for cytokine expression via ELISA. Untreated (UT) (n=1), LSP (n=3), LSP+SP (n=2). (FIG. 1).

[2] = system: CD8+ T cells (pmel splenocytes); experiment: CFSE-labeled pmel splenocytes co-cultured with gp100-pulsed BMDCs; CFSE dilution by flow cytometry, cytokines by ELISA; format: cell-based; settings: in vitro
Text: FIG. 2A is a graph showing the proliferation and activation of CD8^+ T cells in the presence of sepiapterin in vitro.
FIG. 2B is a graph showing cytokine (interferon gamma, IFN-γ) expression in cells in the presence of sepiapterin in vitro.
FIG. 2C is a graph showing cytokine (interleukin 2, IL-2) expression in cells in the presence of sepiapterin in vitro.
1×10^5 pmel splenocytes were labeled with carboxyfluorescein succinimidyl ester (CFSE) and then co-cultured, at either a 1:10 or 1:40 ratio (splenocytes:BMDC), with gp100-pulsed bone marrow derived dendritic cells (BMDCs) for 3 days. Sepiapterin (SP) was added after BMDCs were added to splenocytes. After incubation, CFSE dilution was measured via flow cytometry (FIG. 2A) and cytokine expression was measured via ELISA (FIGS. 2B and 2C). No DC=no dendritic cells, UT=untreated. […] The enhanced secretion of IFN-γ in FIG. 2B is a result of the higher number of T cells present in wells treated with SP.

OT-I cells = experiment: OT-I splenocyte transfer with ova peptide-pulsed BMDCs; proliferation and IFN-γ by flow cytometry; format: in vivo, C57/B16 mice; settings: mice
Procedure: FIG. 3A is a graph showing the proliferation and activation of CD8^+ T cells in the presence of sepiapterin in vivo.
FIG. 3B is a graph showing cytokine (IFN-γ) expression in cells in the presence of sepiapterin in vivo.
2×10^6 OT-I splenocytes were injected into C57/B16 mice via tail vein injection. 24 hours later, 1×10^6 ova peptide-pulsed bone marrow derived dendritic cells were injected into these mice subcutaneously. Starting on day 3, mice were given 10 mg/kg SP orally for 3 consecutive days. On day 6, mice were sacrificed and spleens were harvested and stimulated for 6 hours with brefeldin A (BFA), phorbol myristate acetate (PMA), and ionomycin. OT-I proliferation (FIG. 3A) and IFN-γ expression (FIG. 3B) were assessed via flow cytometry.

[3] = Stability on exposure to air; format: physicochemical; settings: exposed to air
Text: Accordingly, pharmaceutical compositions of the invention may include antioxidants. The antioxidant may minimize the oxidative degradation of sepiapterin. […]

[4] = healthy volunteers and subjects with Phenylketonuria, Primary BH4 Deficiencies, or diabetic gastroparesis; cited from earlier work
[5] = system: innate immune cell mediated inflammation in the colon; settings: caused by DSS in the colon, preclinical models; cited from earlier work

Structure (SMILES): C[C@H](O)C(=O)C1=Nc2c(nc(N)[nH]c2=O)NC1 [sepiapterin, (S)-2-amino-6-(2-hydroxypropanoyl)-7,8-dihydropteridin-4(3H)-one]
- cytokine expression in bronchoalveolar lavage (BAL) fluid [1]: lower levels of cytokine expression
- proliferation of CD8+ T cells (CFSE dilution) ([2]; 3 days co-culture, 1:10 or 1:40 splenocytes:BMDC, FIG. 2A): enhanced proliferation of anti-viral CD8^+ T cells in a dose dependent manner
- T cell activation and IFN-γ secretion ([2]; ELISA, FIGS. 2B and 2C): without directly affecting T cell activation and IFN-γ secretion
- OT-I proliferation (OT-I cells; 10 mg/kg orally for 3 consecutive days from day 3, spleens day 6, FIG. 3A): enhanced proliferation of OT-I cells
- T cell activation and IFN-γ secretion (OT-I cells; 10 mg/kg orally for 3 consecutive days, spleens stimulated 6 hours with BFA, PMA, ionomycin, FIG. 3B): minimal effect on T cell activation and IFN-γ secretion
- oxidation stability [3]: prone to rapid oxidation when exposed to air
- tolerability [4]: well tolerated
- innate immune cell mediated inflammation [5]: profoundly suppress innate immune cell mediated inflammation
